The subject of this assay is powdery mildew. Nature of the assay: Test Example 1: foliar spray on potted wheat, powdery mildew inoculation, control value from onset area rate. The note with it: single agent, foliage spray on wheat, powdery mildew inoculated, 7 days at 21° C. The class given is in vivo, Wheat (Shirogane). The procedure:
A plastic pot was stuffed with a sand soil. Wheat (Shirogane) was sown thereon, allowed to grow in a greenhouse at 24° C. for 7 days, transferred to a greenhouse at 15° C., and then allowed to grow for 14 days. A water-diluted solution of the present compound (I) and a water-diluted solution of pyriofenone, metrafenone, cyflufenamid, quinoxyfen or proquinazid were mixed to prepare an agent solution containing prescribed amounts of the present compound (I) and, pyriofenone, metrafenone, cyflufenamid, quinoxyfen or proquinazid. The agent solution was sprayed to the foliage of the wheat, then the plant was air-dried, and then a powdery mildew was inoculated. After the inoculation, the plant was allowed to stand at 21° C. for 7 days and then an onset area rate was examined visually and a control value was calculated using the following formula. Moreover, the present compound (I), pyriofenone, metrafenone, cyflufenamid, quinoxyfen or proquinazid was diluted with water to prepare water-diluted solutions with a prescribed concentration, the same test was carried out for each of the solutions and control values were calculated. Control value (%)=100×(A−B)/A A: an onset area rate of the non-treated group B: an onset area rate of the treated group Results are shown in Table 1.

Setting [1] is: treatment concentration 0.15 ppm.

In the case of `COc1cc(C)c(C(=O)c2c(OC)ncc(Cl)c2C)c(OC)c1OC` [Pyriofenone], the Control value under setting [1] is listed as 69%. Take `C=CCSC(=O)n1c(N)c(-c2ccccc2C)c(=O)n1C(C)C` [Present compound (I)]: the Control value (treatment concentration 0.1 ppm) came to 3%.

As to `CCCOc1nc2ccc(I)cc2c(=O)n1CCC` [Proquinazid], under setting [1], the Control value was determined as 74%.

Take `O=C(Cc1ccccc1)N/C(=N\OCC1CC1)c1c(C(F)(F)F)ccc(F)c1F` [Cyflufenamid]: the Control value under setting [1] turned out to be 52%. Turning to `Fc1ccc(Oc2ccnc3cc(Cl)cc(Cl)c23)cc1` [Quinoxyfen], the Control value under setting [1] stood at 71%.

As to `COc1cc(C)c(C(=O)c2c(OC)ccc(Br)c2C)c(OC)c1OC` [Metrafenone], under setting [1], the Control value came to 71%.

For the origin of these results see patent US9439425B2, “Plant disease control composition and plant disease control method” (Sumitomo Chemical Company, Limited, priority 2012, dated 2016).
